{
  "source": "patent US7192714B2",
  "about": "“LDL receptor signaling assays” (Board of Regents, The University of Texas System, priority 2001, dated 2007)",
  "key": {"[1]": {"test_system": "pMstGV-LDL-R construct", "assay": "LDL-R-Gal4/VP16 (pMstGV-LDL-R) luciferase reporter gene assay in transfected 293 cells", "format": "cell-based, human", "details": "100 nM TPA for 24 h", "protocol": "(§1) Cell Culture and transfection of 293 cells: The human embryonic kidney cell line HEK 293 (CRL-1573, ATCC) was maintained in monolayer culture at 37° C. under a 8% CO2 atmosphere. On day 0 cells were set up at a density of 5×105 per 60 mm dish in Dulbecco's Modified Eagle's Medium (low glucose) containing 100 U/ml penicillin, 100 ug/ml streptomycin sulfate and 10% (v/v) FCS. On day one cells were transfected by calcium phosphate precipitation (MBS Kit™, Stratagene, La Jolla, Calif., used according to manufacturers' instructions) with 9 ug of the pG5 E1B-Luc plasmid, 0.5 ug of pCMV-b-Gal for internal control of transfection efficiency, the respective receptor construct and expression vectors for different adapter proteins or other components as indicated in the text. On day two treatment with TPA or other reagents was started as described above and cells were harvested 24 h to 48 h later.\n(§2) Reporter gene assays: 293 cells were harvested for reporter gene assays 48 h after transfection. Their culture medium was removed and the cells were washed once with PBS. After addition of 400 ul “Reporter Lysis Buffer” (Promega, Madison, Wis.) per 60mm dish cells were processed according to manufacturers' instructions. Luciferase gene expression was analyzed using the “Luciferase Assay System” (Promega, Madison, Wis.). […]"}, "[2]": {"test_system": "LRP-Gal4/VP16", "assay": "LRP-Gal4/VP16 luciferase reporter gene assay in transfected 293 cells", "format": "cell-based, human", "protocol": "as §1\nReporter gene assays: 293 cells were harvested for reporter gene assays 48 h after transfection. Their culture medium was removed and the cells were washed once with PBS. After addition of 400 ul “Reporter Lysis Buffer” (Promega, Madison, Wis.) per 60mm dish cells were processed according to manufacturers' instructions. Luciferase gene expression was analyzed using the “Luciferase Assay System” (Promega, Madison, Wis.). A 10 s integral measurement of light emission from each reaction mixture was performed in a tube luminometer (Octopump II, MOM Instruments).\nβ-Gal assays for internal control of […] were carried out with an aliquot of the cell lysates prepared for the luciferase assay using the ‘Chemiluminescent b-Gal Detection Kit” (Clontech, Palo Alto, Calif.). Normalization of luciferase activity to b-Gal activity was done by dividing RLU values obtained with the first assay by those from the latter reaction. All transfections for reporter gene assays were repeated in at least two independent experiments.\nExperimental Strategy. The Gal4/VP16 fusion protein, which consists of the DNA binding domain of the yeast Gal4 transcription factor and of the transactivating domain of the Herpes simplex virus protein VP16, is able to drive transcription from a luciferase reporter plasmid that contains five Gal4 binding elements in front of the adenoviral E1B minimal promoter and the firefly luciferase gene. […]\nTreatment of 293 Cells with the Proteasome Inhibitor Lactacystin Stabilizes the Intracellular LRP-Cleavage Product. […] Subsequently cell lysates were prepared and examined for luciferase activity. β-Gal activity was measured to correct for transfection efficiency. […]"}, "[3]": {"test_system": "LRP", "assay": "Endogenous LRP levels by Western blotting in untransfected 293 cells", "format": "cell-based, human", "protocol": "(§3) SDS-Page and immunoblot analysis: SDS-Page and immunoblotting were performed according to standard procedures. Briefly, equal amounts of protein as determined with the Coomassie Plus Protein Reagent (Pierce, Rockford, Ill.) were loaded on 4–12% SDS PA gels. After electrophoresis and protein transfer on a PVDF membrane immunoblot, analysis was carried out with rabbit polyclonal antibodies against a C-terminal fragment of LRP. Bound antibodies were visualized with peroxidase-conjugated anti-rabbit IgG by using the SuperSignal CL-HRP Substrate (Pierce, Rockford, Ill.) according to the manufacturer's instructions.\n(§4) Then cell lysates were prepared and analyzed by Western Blotting. The antibody used for immunostaining is directed against LRP's C-terminus.\nTPA Treatment Leads To Decreased LRP Levels in 293 Cells. […] Then cell lysates were prepared and analyzed by Western Blotting. The antibody used for immunostaining is directed against LRP's C-terminus."}, "[4]": {"test_system": "LRP", "assay": "Endogenous LRP levels by Western blotting in MEF-1 cells", "format": "cell-based, mouse", "protocol": "as §3, §4\nDecrease of LRP Levels after TPA Treatment is Time-Dependent. […] Then cell lysates were prepared and used for SDS-PAGE and Western Blotting. LRP was stained with an antibody directed against its cytoplasmic tail."}, "[5]": {"test_system": "pMstGV-APP construct", "assay": "APP-Gal4/VP16 (pMstGV-APP) luciferase reporter gene assay in transfected 293 cells", "format": "cell-based, human", "details": "100 nM TPA for 24 h", "protocol": "as §1, §2"}},
  "data": [
    {"smiles": "CCCCCCCCCCCCCC(=O)O[C@@H]1[C@@H](C)[C@@]2(O)[C@@H](C=C(CO)C[C@]3(O)C(=O)C(C)=C[C@@H]23)[C@@H]2C(C)(C)[C@]12OC(C)=O", "note": "[TPA, Phorbol 12-myristate 13-acetate]", "values": [
      {"measurement": "luciferase activity, stimulated versus unstimulated", "setting": "[1]", "result": "negligible activity under stimulated and unstimulated conditions"},
      {"measurement": "luciferase activity, elevation under stimulated versus unstimulated conditions", "setting": "[2]; 100 nM TPA for 24 h, pcDNA3.1-LRP-Gal4/VP16", "result": "up to 10 fold"},
      {"measurement": "corrected luciferase activity (intracellular/intramembraneous LRP cleavage) versus unstimulated cells", "setting": "[2]; 100 nM TPA, time periods of 12, 16, 20 and 24, pcDNA3.1-LRP-Gal4/VP16", "result": "linear increase"},
      {"measurement": "effect on endogenous LRP levels", "setting": "[3]; 100 nM TPA for 24 h or time indicated, untransfected 293 cells", "result": "Lowers Endogenous LRP Levels"},
      {"measurement": "decrease of cellular LRP levels", "setting": "[3]; 100 nM TPA, various time periods up to 48 h, Western blot, antibody against LRP C-terminus, text names 293 and MEF-1 cells, heading 293", "result": "≤ 90", "unit": "%"},
      {"measurement": "effect on endogenous LRP levels", "setting": "[4]; 100 nM TPA for 24 h or time indicated", "result": "Lowers Endogenous LRP Levels"},
      {"measurement": "decrease of LRP levels, time course", "setting": "[4]; TPA for 0.5, 1.5, 5, 5, 6 and 24 h", "result": "Time-Dependent"},
      {"measurement": "luciferase activity, stimulated versus unstimulated", "setting": "[5]", "result": "equivalent elevated activity under both stimulated and unstimulated conditions"}
    ]},
    {"smiles": "CC(=O)N[C@@H](CSC(=O)[C@]1([C@@H](O)C(C)C)NC(=O)[C@H](C)[C@@H]1O)C(=O)O", "note": "[lactacystin, Lactacystin]", "values": [
      {"measurement": "luciferase signal enhancement (stabilization of intracellular LRP-cleavage product)", "setting": "[2]; 10 uM lactacystin for 24 h", "result": "about 25 fold"},
      {"measurement": "luciferase signal enhancement (stabilization of intracellular LRP-cleavage product)", "setting": "[2]; 50 uM lactacystin for 24 h", "result": "about 25 fold"}
    ]}
  ]
}
